Experimental data as given in patent publication US9766247B2, “Rapid method to analyze ubiquitin-proteasome activity and to screen for ubiquitin-proteasome inhibitor” (KOREA INSTITUTE OF SCIENCE AND TECHNOLOGY, priority 2014, dated 2017).
Residues, ends and D or L forms follow the SMILES beside them. *: point of attachment. Cbz = O=C(OCc1ccccc1)*

Test system: ubiquitin-proteasome
Assay: Quantification of GFP-RPN1 fusion protein accumulated by proteasome inhibitor (dual LIF CE system)
Assay type: cell-based, human
Settings: HEK 293T cells transfected with EGFP-RPN1 and DsRed plasmid vectors; about 0 to about 20 μM inhibitor, two hours; GFP-RPN1 peak height by CE-dual LIF; FIGS. 5a to 5c
Method: To monitor a ubiquitin-proteasome-dependent protein RPN1 (ribophorin I), a plasmid vector enabling to express a fusion protein including a green fluorescent protein (GFP) and RPN1 was prepared. Specifically, to induce rapid lysis of a human RPN1 protein, a wild type RPN1 polynucleotide (SEQ ID NO: 2) encoding a wild type human RPN1 protein (SEQ ID NO: 1) was used to prepare a mutant RPN-I^N299T polynucleotide (SEQ ID NO: 4) encoding a mutant RPN-I^N299T protein (SEQ ID NO: 3). The mutant RPN-I^N299T polynucleotide (SEQ ID NO: 4) was cloned into a pEGFP-C1 plasmid vector (Clontech Laboratories Inc.) to prepare a pEGFP-RPN1^N299T plasmid which enables expression of a fusion protein including a GFP protein and the RPN1^N299T protein.
On the other hand, a plasmid vector expressing a red fluorescent protein (RFP) as a ubiquitin-proteasome-independent protein which is not lysed by a ubiquitin-proteasome was prepared. Specifically, a pDs-Red2-Express-N1 plasmid vector (Clontech Laboratories Inc.) which enables expression of a Discosoma species RFP (DsRed) was prepared.
As host cells, human embryonic kidney (HEK) 293T cells were cultured in a DMEM (Dulbecco's Modified Eagle's Medium) (Gibco/BRL) including 10% (v/v) fetal bovine serum (FBS) and 1% (v/v) penicillin-streptomycin (Gibco/BRL) at a temperature of 37° C. under the atmosphere of 5% CO2. During the culturing, the medium was replaced with new medium every second day. […]
Subsequently, the supernatant which was the cell lysate was obtained as described in Example 1.2. As described in Example 1.3, a capillary electrophoresis was performed with the obtained supernatant under the electrophoresis conditions of 100 mM Tris-CHES and 10 mM SDS (pH 9.0) by using a dual LIF CE system including an uncoated capillary having an inner diameter of 75 μm and a length of 50 cm to quantify the peak height. […]

| Structure (SMILES) | amount of the accumulated proteins (relative intensity of the peaks) |
| --- | --- |
| CC(C)C[C@@H](C=O)NC(=O)[C@H](CC(C)C)NC(=O)[C@H](CC(C)C)NC(=O)OCc1ccccc1 [MG132] (Cbz-Leu-Leu-Leu-aldehyde) | varied according to the increase of the concentrations |
| CC(C)C[C@H](NC(=O)[C@H](Cc1ccccc1)NC(=O)c1cnccn1)B(O)O [bortezomib] | varied according to the increase of the concentrations |
| CC(C)C[C@H](NC(=O)[C@H](CCc1ccccc1)NC(=O)CN1CCOCC1)C(=O)N[C@@H](Cc1ccccc1)C(=O)N[C@@H](CC(C)C)C(=O)[C@@]1(C)CO1 [carfilzomib] | varied according to the increase of the concentrations |
